# In paper PMC2810320 (Journal of the American Chemical Society, 2010):
# Assays:
# [1] = biological target: T1, porcine bc1 complex (Sus scrofa, UniProt P24964); assay: Succinate-cytochrome c reductase; assay type: biochemical; settings: for ΔG ΔGexp.: ΔGexp. = −RTlnKi
# [2] = biological target: T1, porcine bc1 complex; assay: Ubiquinol-cytochrome c reductase; assay type: biochemical
# [3] = DBH2 and cytochrome c as substrates, pH 6.5, 750 µM lauryl maltoside
# T1 sequence (P24964 whole entry, one chain of several): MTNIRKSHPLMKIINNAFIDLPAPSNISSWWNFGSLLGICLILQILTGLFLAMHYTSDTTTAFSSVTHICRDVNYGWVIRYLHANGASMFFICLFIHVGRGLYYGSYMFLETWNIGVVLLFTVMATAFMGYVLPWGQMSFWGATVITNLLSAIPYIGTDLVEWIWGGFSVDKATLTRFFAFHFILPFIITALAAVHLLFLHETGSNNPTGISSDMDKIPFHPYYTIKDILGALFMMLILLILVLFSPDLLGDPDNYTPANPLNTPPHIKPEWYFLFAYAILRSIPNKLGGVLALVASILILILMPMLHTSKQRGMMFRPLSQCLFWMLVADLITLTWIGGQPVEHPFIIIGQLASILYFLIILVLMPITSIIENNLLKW
SMILES,ΔG ΔGexp. [1] [kcal/mol],other results
CO/C=C(/C(=O)OC)c1ccccc1COc1cc(-c2cc(C)ccc2OC)nn1C [Compound 6b],-10.52,–
"CO/C=C(/C(=O)OC)c1ccccc1Oc1cc(Oc2ccccc2C#N)ncn1 [AZ, azoxystrobin, reference compound]",-8.92,–
CO/C=C(/C(=O)OC)c1ccccc1COc1cc(-c2cc(C)ccc2O)nn1C [Compound 5b],-11.62,–
CO/N=C(/C(=O)OC)c1ccccc1COc1cc(-c2ccccc2O)nn1C [Compound 5d],-11.50,–
CO/C=C(/C(=O)OC)c1ccccc1COc1cc(-c2ccccc2OCc2ccccc2)nn1C [Compound 6c],-10.79,–
"COC(=O)N(OC)c1ccccc1COc1ccn(-c2ccc(Cl)cc2)n1 [PY, pyraclostrobin, reference compound]",-11.59,–
CO/C=C(/C(=O)OC)c1ccccc1COc1cc(-c2ccccc2OC)nn1C [Compound 6a],-10.29,–
CO/C=C(/C(=O)OC)c1ccccc1COc1cc(-c2ccccc2O)nn1C [Compound 5a],-12.19,–
CO/C=C(/C(=O)OC)c1ccccc1COc1cc(-c2ccccc2OC(=O)c2ccc(F)cc2)nn1C [Compound 6d],-9.56,–
CO/C=C(/C(=O)OC)c1ccccc1COc1cc(-c2cc(Cl)ccc2O)nn1C [Compound 5c],-12.63,"type of inhibition with respect to substrate cytochrome c ([1]; kobs independent of cytochrome c concentration, 5 nM 5c): non-competitive inhibitor; kon ([1]; pH 7.4, read-out: apparent rate constant A (association rate constant k+0)): 6.31e+06 ± 360000 M⁻¹ s⁻¹; koff ([1]; pH 7.4, read-out: apparent rate constant B (dissociation rate constant k−0)): 0.00358 s⁻¹; fold improved binding affinity compared to AZ ([1]; ratio of Ki values, vs AZ): about 522 fold; Ki [2]: 2.6 ± 0.1 nM; microscopic inhibition rate constant k+0 [2, 3]: 1.85e+06 ± 30000 M⁻¹ s⁻¹; microscopic inhibition rate constant k−0 [2, 3]: 0.0048 ± 0.00018 s⁻¹; Ki fold higher than that measured from succinate-cytochrome c reductase activity inhibition ([2]; DBH2 assay Ki vs SCR assay Ki): about 5 fold; type of inhibition with respect to substrate ubiquinol ([2]; varying DBH2 20–115 µM): competitive inhibitor"
"CO/N=C(/C(=O)OC)c1ccccc1COc1ccccc1C [KM, kresoxim-methyl, reference compound]",-9.28,–
